Test results published in US11304974B2, “Nanosystems comprising silver and antibiotics and their use for the treatment of bacterial infections” (priority 2017, dated 2022).
Like-named read-outs stand apart in the source and are kept apart here.

What was measured:
[1] = tested on: S. aureus Sa-10 (strain 9); assay: Checkerboard synergy test collargol-vancomycin (Example 5); conditions: Staphylococcus aureus, read-out: MIC (product alone, Checkerboard test)
Method: (§3) To determine the existence of synergistic activity between collargol and vancomycin, a checkerboard test using plates having a “U”-shaped bottom (TPP) of 96 wells was used. Double subinhibitory serial dilutions of the two antimicrobials were prepared, so that the concentration of collargol decreased vertically (up-down) and the concentration of vancomycin decreased horizontally (left-right).
(§4) To quantify the synergistic activity of the two combined compounds, the Index fractional inhibitory concentration (IFIC) parameter was used. This index relates MIC of the antimicrobial 1 with the antimicrobial 2 alone and in combination, according to the following formula:
(§5) It is considered that there is synergistic effect if the IFIC value is <0.5.
(§6) The procedure was as follows: • Preparation of fresh cultures of each of the strains on blood agar (37° C., 24 h). […] The well wherein the minimum value of IFIC is obtained is chosen.

[2] = tested on: S. aureus Sa-11 (strain 10); assay: Epsilometry E-test, absence and presence of silver (Example 5); assay type: cell-based; conditions: Staphylococcus aureus
Method: (§1) In order to evaluate the synergy of collargol-antibiotics an epsilometry E-test was carried out. Said test is based on the agar diffusion method and relates to using a strip with a predefined steady gradient of 15 concentrations of the antibiotic being tested. After strain growth, an elliptical inhibition halo, being the MIC the antibiotic concentration corresponding to the cutting point.
(§2) It was performed for the antibiotics vancomycin, linezolid and tedizolid, in absence and presence of silver (½ and 1/10 MIC).

[3] = tested on: S. epidermidis Se-1 (strain 14); assay: as above; assay type: cell-based; conditions: Staphylococcus epidermidis
Method: as §1, §2

[4] = tested on: S.aureus ATCC 700698 Sa-SARM (strain 15); assay: as above; assay type: cell-based; conditions: Staphylococcus aureus
Method: as §1, §2

[5] = tested on: S. aureus Sa-12 (strain 11); assay: as above; assay type: cell-based; conditions: Staphylococcus aureus
Method: as §1, §2

[6] = tested on: S. aureus Sa-14 (strain 13); assay: as above; assay type: cell-based; conditions: Staphylococcus aureus, strain 13 (S. aureus Sa-14)
Method: as §1, §2

[7] = tested on: S. aureus Sa-3 (strain 3); assay: as above; assay type: cell-based; conditions: Staphylococcus aureus
Method: as §1, §2

[8] = tested on: S. aureus Sa-9 (strain 8); assay: as above; assay type: cell-based; conditions: Staphylococcus aureus
Method: as §1, §2

[9] = tested on: S. aureus Sa-10 (strain 9); assay: as above; assay type: cell-based; conditions: Staphylococcus aureus
Method: as §1, §2

[10] = tested on: S. aureus Sa-13 (strain 12); assay: as above; assay type: cell-based; conditions: Staphylococcus aureus
Method: as §1, §2

[11] = tested on: S. aureus Sa-1 (strain 1); assay: as above; assay type: cell-based; conditions: Staphylococcus aureus
Method: as §1, §2

[12] = tested on: S. aureus Sa-12 (strain 11); assay: Checkerboard synergy test collargol-vancomycin (Example 5); conditions: Staphylococcus aureus, read-out: MIC (product alone, Checkerboard test)
Method: as §3, §4, §5, §6

[13] = tested on: S. epidermidis Se-1 (strain 14); assay: as above; conditions: Staphylococcus epidermidis, read-out: MIC (product alone, Checkerboard test)
Method: as §3, §4, §5, §6

Gram Positive Bacteria = assay: Silver-antibiotics interaction study, MicroScan (Example 4); assay type: cell-based, S. aureus; conditions: subinhibitory colloidal silver (½ or 1/10 MIC)
Method: The effect of subinhibitory concentrations of colloidal silver (namely, ½ and 1/10 dilution of the MIC obtained in Example 3) in the presence of different types of antibiotics was tested.
For this, an automated equipment MicroScan AutoScan 4 (Siemens) was used, using Gram negative (Becman Coulter NM37) and Gram positive (Becman Coulter PM28) cards.
Each of these broths served as inoculum for the cards with antibiotics (for each strain, thus 3 cards were prepared). • Incubating the plates with antibiotics (in presence and absence of silver) at 37° C. for 24 h. • Reading the cards by use of LabPro software, and interpretation of the obtained values of MIC (determine if the silver reduces the initial MCI of each antibiotic).

[14] = tested on: S. aureus Sa-11 (strain 10); assay: Checkerboard synergy test collargol-vancomycin (Example 5); conditions: Staphylococcus aureus, read-out: MIC (product alone, Checkerboard test)
Method: as §3, §4, §5, §6

[15] = tested on: S. aureus Sa-3 (strain 3); assay: as above; conditions: Staphylococcus aureus, read-out: MIC (product alone, Checkerboard test)
Method: as §3, §4, §5, §6

[16] = read-out: MIC (E-test) MH (without silver)
[17] = read-out: MIC (E-test) MH-1/10 MIC
[18] = read-out: MIC (E-test) MH-½ MIC

CN[C@H](CC(C)C)C(=O)N[C@H]1C(=O)N[C@@H](CC(N)=O)C(=O)N[C@H]2C(=O)N[C@H]3C(=O)N[C@H](C(=O)N[C@H](C(=O)O)c4cc(O)cc(O)c4-c4cc3ccc4O)[C@H](O)c3ccc(c(Cl)c3)Oc3cc2cc(c3O[C@@H]2O[C@H](CO)[C@@H](O)[C@H](O)[C@H]2O[C@H]2C[C@](C)(N)[C@H](O)[C@H](C)O2)Oc2ccc(cc2Cl)[C@H]1O [Vancomycin]
MIC [1]: 1 µg/mL
MIC [2, 16]: 0.5 µg/mL
MIC [2, 17]: 0.38 µg/mL
MIC [2, 18]: 0.25 µg/mL
MIC [3, 16]: 0.75 µg/mL
MIC [3, 17]: 0.5 µg/mL
MIC [3, 18]: 0.38 µg/mL
MIC ([4]; ATCC700698, read-out: MIC (E-test) MH (without silver)): 1.5 µg/mL
MIC ([4]; ATCC700698, read-out: MIC (E-test) MH-1/10 MIC): 1 µg/mL
MIC ([4]; ATCC700698, read-out: MIC (E-test) MH-½ MIC): 1 µg/mL
MIC [5, 16]: 1 µg/mL
MIC [5, 17]: 1 µg/mL
MIC [5, 18]: 0.5 µg/mL
MIC ([6]; MH agar with 1/10 MIC of colargol, read-out: MIC (E-test) MH-1/10 MIC): 0.38 µg/mL
MIC ([6]; MH agar with ½ MIC of colargol, read-out: MIC (E-test) MH-½ MIC): 0.25 µg/mL
MIC ([6]; MH agar without silver, read-out: MIC (E-test) MH (without silver)): 0.38 µg/mL
MIC [7, 16]: 0.75 µg/mL
MIC [7, 17]: 0.75 µg/mL
MIC [7, 18]: 0.38 µg/mL
MIC [8, 16]: 1 µg/mL
MIC [8, 17]: 1 µg/mL
MIC [8, 18]: 0.75 µg/mL
MIC [9, 16]: 1 µg/mL
MIC [9, 17]: 1 µg/mL
MIC [9, 18]: 0.38 µg/mL
MIC [10, 16]: 0.5 µg/mL
MIC [10, 17]: 0.5 µg/mL
MIC [10, 18]: 0.38 µg/mL
MIC [11, 16]: 0.5 µg/mL
MIC [11, 17]: 0.5 µg/mL
MIC [11, 18]: 0.38 µg/mL
MIC [12]: 1 µg/mL
MIC [13]: 1 µg/mL
Effect of silver on the strain's sensitivity to the antibiotic (Gram Positive Bacteria): improved sensitivity
MIC [14]: 1 µg/mL
MIC [15]: 1 µg/mL
